From patent US11274097B2, “2-(het)aryl-substituted condensed bicyclic heterocycle derivatives as pest control agents” (BAYER CROPSCIENCE AKTIENGESELLSCHAFT, priority 2014, dated 2022)
Read-outs that look alike come from different tables or passages of the source.

Columns and labels:
[1] = tested on: Myzus persicae; experiment: Myzus persicae spray test (MYZUPE), Chinese cabbage leaf discs; assay type: in vivo; details: after 6 days
Protocol: Myzus persicae—Spray Test (MYZUPE)
Solvent: 78 parts by weight of acetone • • 1.5 parts by weight of dimethylformamide
Emulsifier: alkylaryl poly glycol ether
(§1) To produce an appropriate active ingredient formulation, 1 part by weight of active ingredient is dissolved using the stated parts by weight of solvent and made up with water containing an emulsifier concentration of 1000 ppm until the desired concentration is attained. To produce further test concentrations, the preparation is diluted with emulsifier-containing water.
Discs of Chinese cabbage leaves (Brassica pekinensis) infested by all stages of the green peach aphid (Myzus persicae) are sprayed with an active ingredient formulation of the desired concentration.
After 6 days, the efficacy in % is determined. 100% means that all the aphids have been killed; 0% means that none of the aphids have been killed.

[2] = log P by HPLC on a reversed-phase column (C 18), EEC Directive 79/831 Annex V.A8; assay type: physicochemical; details: for LOGP_NEUTRAL: pH 7.8, 0.001 molar aqueous ammonium hydrogencarbonate/acetonitrile; for chromatographic logP: reversed-phase HPLC column (C 18)
Protocol: The log P values are measured according to EEC Directive 79/831 Annex V.A8 by HPLC (high-performance liquid chromatography) on a reversed-phase column (C 18). Temperature: 55° C. The LC-MS determination in the acidic range is effected at pH 2.7 using 0.1% aqueous formic acid and acetonitrile (contains 0.1% formic acid) as eluents, linear gradient from 10% acetonitrile to 95% acetonitrile. Called log P (HCOOH) in the table. LC-MS determination in the neutral range is effected at pH 7.8 with 0.001 molar aqueous ammonium hydrogencarbonate solution and acetonitrile as eluents; linear gradient from 10% acetonitrile to 95% acetonitrile. Called log P (neutral) in the table. Calibration is effected with unbranched alkan-2-ones (having 3 to 16 carbon atoms) with known log P values (log P values determined on the basis of the retention times by linear interpolation between two successive alkanone s).

[3] = tested on: Tetranychus urticae; experiment: Tetranychus urticae spray test, OP-resistant (TETRUR); assay type: in vivo; details: application rate 500 g/ha; bean leaf discs; after 6 days
Protocol: Tetranychus urticae—Spray Test, OP-Resistant (TETRUR)
(§2) Solvent: 78.0 parts by weight of acetone • • 1.5 parts by weight of dimethylformamide
(§3) Emulsifier: alkylaryl polyglycol ether
as §1
Discs of bean leaves (Phaseolus vulgaris) infested by all stages of the greenhouse red spider mite (Tetranychus urticae) are sprayed with an active ingredient formulation of the desired concentration.
After 6 days, the efficacy in % is determined. 100% means that all the spider mites have been killed; 0% means that none of the spider mites have been killed.

[4] = tested on: Phaedon cochleariae; experiment: Phaedon cochleariae spray test (PHAECO); assay type: in vivo; details: larvae, after 7 days
Protocol: Phaedon cochleariae—Spray Test (PHAECO)
as §2, §3, §1
Discs of Chinese cabbage leaves (Brassica pekinensis) are sprayed with an active ingredient formulation of the desired concentration and, after drying, populated with larvae of the mustard beetle (Phaedon cochleariae).
After 7 days, the efficacy in % is determined. 100% means that all the beetle larvae have been killed; 0% means that no beetle larvae have been killed.

[5] = tested on: Spodoptera frugiperda; experiment: Spodoptera frugiperda spray test (SPODFR); assay type: in vivo; details: application rate 500 g/ha; maize leaf discs; after 7 days
Protocol: Spodoptera frugiperda—Spray Test (SPODFR)
as §2, §3, §1
Leaf discs of maize (Zea mays) are sprayed with an active ingredient formulation of the desired concentration and, after drying, populated with caterpillars of the armyworm (Spodoptera frugiperda).
After 7 days, the efficacy in % is determined. 100% means that all the caterpillars have been killed; 0% means that no caterpillars have been killed.

[6] = acidic range, pH 2.7, 0.1% aqueous formic acid/acetonitrile, 55° C.
[7] = acidic range, pH 2.7, 0.1% aqueous formic acid/acetonitrile, 55° C., read-out: LOGP_HCOOH
[8] = neutral range, pH 7.8, read-out: log P (neutral)

LOGP_HCOOH [2, 6]	LOGP_NEUTRAL ([2]; neutral range, 55° C.)	chromatographic logP [2, 7]	chromatographic logP [2, 8]	Compound	efficacy ([1]; application rate 500 g/ha)	efficacy [3]	efficacy ([4]; application rate 500 g/ha)	efficacy ([4]; application rate 100 g/ha)	efficacy ([1]; application rate 20 g/ha)	efficacy [5]
1.90	1.87	–	–	CC[S+]([O-])c1ccccc1-c1nc2cc(C(F)(F)F)ncc2n1C (centres unmarked) [Example I-22]	100%	90%	100%	–	–	–
2.69	2.61	–	–	CCS(=O)(=O)c1cc(Cl)ccc1-c1nc2cc(C(F)(F)F)ncc2n1C [Example I-43]	100%	–	100%	–	–	–
2.94	2.87	–	–	CCSc1ccccc1-c1nc2cc(C(F)(F)F)ncc2n1C [Example I-17]	90%	–	–	83%	–	–
3.52	3.45	–	–	CCC[S+]([O-])c1cc(C(F)(F)F)cnc1-c1nc2cc(C(F)(F)F)ncc2n1C (centres unmarked) [Example I-39]	–	–	100%	–	90%	100%
2.53	–	–	–	CCS(=O)(=O)c1ccc(OC)nc1-c1nc2cc(C(F)(F)F)ncc2n1C [Example I-45]	90%	–	100%	–	–	–
4.10	4.02	–	–	CCSc1cc(C(F)(F)F)cnc1-c1nc2cc(C(F)(F)C(F)(F)F)ncc2n1C [Example I-47]	–	–	100%	–	–	100%
2.98	2.92	–	–	CCSc1cccnc1-c1nc2cc(C(F)(F)C(F)(F)F)ncc2n1C [Example I-46]	90%	–	100%	–	–	100%
3.12	–	–	–	CCSc1ccc(OC)nc1-c1nc2cc(C(F)(F)F)ncc2n1C [Example I-53]	–	90%	100%	–	–	–
2.45	2.36	–	–	CC[S+]([O-])c1cc(Cl)ccc1-c1nc2cc(C(F)(F)F)ncc2n1C (centres unmarked) [Example I-44]	100%	90%	100%	–	–	–
2.68	2.63	–	–	CCS(=O)(=O)c1ccc(Cl)cc1-c1nc2cc(C(F)(F)F)ncc2n1C [Example I-38]	90%	–	100%	–	–	–
4.02	3.96	–	–	CCSCCSc1cc(C(F)(F)F)cnc1-c1nc2cc(C(F)(F)F)ncc2n1C [Example I-23]	100%	–	–	–	–	–
2.39	2.32	–	–	CCSc1cccnc1-c1nc2cc(C(F)(F)F)ncc2n1C [Example I-24]	100%	–	100%	–	–	–
–	3.16	3.22	3.16	CSc1cc(C(F)(F)F)cnc1-c1nc2cc(C(F)(F)F)ncc2n1C [Example I-3, 3-methyl-2-[3-(methylsulphanyl)-5-(trifluoromethyl)pyridin-2-yl]-6-(trifluoro-methyl)-3H-imidazo[4,5-c]pyridine]	–	–	100%	–	–	–
3.52	3.48	–	–	CCSc1cc(C(F)(F)F)cnc1-c1nc2cc(C(F)(F)F)ncc2n1C [Example I-2]	–	90%	100%	–	–	100%
2.15	2.08	–	–	Cn1c(-c2ccc(Cl)cc2[S+](C)[O-])nc2cc(C(F)(F)F)ncc21 (centres unmarked) [Example I-10]	100%	–	100%	–	–	–
3.29	3.22	–	–	CCSc1cc(C(F)(F)F)cnc1-c1nc2nc(C(F)(F)F)ncc2n1C [Example I-28]	–	90%	100%	–	–	–

LOGP_HCOOH [2, 6]	LOGP_NEUTRAL ([2]; neutral range, 55° C.)	chromatographic logP [2, 7]	chromatographic logP [2, 8]	Compound	efficacy ([1]; application rate 500 g/ha)	efficacy [3]	efficacy ([4]; application rate 500 g/ha)	efficacy ([4]; application rate 100 g/ha)	efficacy ([1]; application rate 20 g/ha)	efficacy [5]
3.04	2.93	–	–	Cn1c(-c2ncccc2SC(F)(F)F)nc2cc(C(F)(F)F)ncc21 [Example I-29]	–	–	100%	–	–	–
2.44	2.34	–	–	CC[S+]([O-])c1ccc(Cl)cc1-c1nc2cc(C(F)(F)F)ncc2n1C (centres unmarked) [Example I-13]	100%	90%	100%	–	–	–
2.71	2.63	–	–	CC[S+]([O-])c1cccnc1-c1nc2cc(C(F)(F)C(F)(F)F)ncc2n1C (centres unmarked) [Example I-61]	90%	–	100%	–	–	100%
3.12	3.01	–	–	CCSc1cc(C(F)(F)F)cnc1-c1nc2cc(Cl)ncc2n1C [Example I-55]	–	–	100%	–	–	–
3.30	3.26	–	–	CSc1cc(C(F)(F)F)ccc1-c1nc2cc(C(F)(F)F)ncc2n1C [Example I-5]	–	–	100%	–	–	–
3.16	3.07	–	–	Cn1c(-c2ncc(C(F)(F)F)cc2S(=O)(=O)CCF)nc2cc(C(F)(F)F)ncc21 [Example I-54]	–	–	100%	–	–	100%
1.88	1.83	–	–	Cn1c(-c2ccc(F)cc2[S+](C)[O-])nc2cc(C(F)(F)F)ncc21 (centres unmarked) [Example I-12]	90%	–	100%	–	–	–
3.75	3.62	–	–	CC[S+]([O-])c1cc(C(F)(F)F)cnc1-c1nc2cc(C(F)(F)C(F)(F)F)ncc2n1C (centres unmarked) [Example I-63]	–	–	83%	–	–	100%
2.70	2.65	–	–	CSc1cc(F)ccc1-c1nc2cc(C(F)(F)F)ncc2n1C [Example I-4]	90%	–	100%	–	–	–
2.48	–	–	–	CC[S+]([O-])c1c(C(F)(F)F)ccnc1-c1nc2cc(C(F)(F)F)ncc2n1C (centres unmarked) [Example I-51]	90%	–	100%	–	–	–
2.39	2.27	–	–	CCSc1ccc(NC(C)=O)nc1-c1nc2cc(C(F)(F)F)ncc2n1C [Example I-50]	90%	–	100%	–	–	–
2.05	1.99	–	–	CCS(=O)(=O)c1ccc(NC(C)=O)nc1-c1nc2cc(C(F)(F)F)ncc2n1C [Example I-49]	90%	–	100%	–	–	–
–	2.76	2.81	2.76	Cn1c(-c2ncc(C(F)(F)F)cc2[S+](C)[O-])nc2cc(C(F)(F)F)ncc21 (centres unmarked) [Example I-26, 3-methyl-2-[3-(methylsulphinyl)-5-(trifluoromethyl)pyridin-2-yl]-6-(trifluoro-methyl)-3H-imidazo[4,5-c]pyridine]	–	–	100%	–	–	100%
1.61	1.56	–	–	CCS(=O)(=O)c1cc(C(N)=O)cnc1-c1nc2cc(C(F)(F)F)ncc2n1C [Example I-56]	90%	–	–	–	–	–
3.17	3.10	–	–	CC[S+]([O-])c1cc(C(F)(F)F)cnc1-c1nc2cc(C(F)(F)F)ncc2n1C (centres unmarked) [Example I-37]	–	–	100%	–	–	100%

Compound	LOGP_HCOOH [2, 6]	LOGP_NEUTRAL ([2]; neutral range, 55° C.)	chromatographic logP [2, 7]	chromatographic logP [2, 8]	efficacy ([1]; application rate 500 g/ha)	efficacy [3]	efficacy ([4]; application rate 500 g/ha)	efficacy ([4]; application rate 100 g/ha)	efficacy ([1]; application rate 20 g/ha)	efficacy [5]
CCS(=O)(=O)c1cc(C(F)(F)F)cnc1-c1nc2cc(Cl)ncc2n1C [Example I-52]	2.61	2.51	–	–	100%	–	100%	–	–	–
